This is an account of results in US20260055079A1, “PHTHALAZINONE COMPOUNDS AS PARP7 INHIBITORS” (AZKARRA THERAPEUTICS, INC., priority 2022, published 2026).

The target in one experiment is PARP2 (Homo sapiens (Human), UniProt Q9UGN5). Nature of the experiment: PARP2 biochemical assay. As to conditions: read-out: PARP2 IC50.
The subject of experiment [1] is CT26 (mouse colon adenocarcinoma) cells. Nature of the experiment: Cell proliferation assay (CellTiter-Glo), CT26. Format: cell-based. The following applies: 6 days. In general terms: ATP-based viability assays read luminescence as a measure of living cells.
The subject of experiment [2] is NCI-H1373 (human lung adenocarcinoma) cells. Nature of the experiment: Cell proliferation assay (CellTiter-Glo), NCI-H1373. Format: cell-based. The following applies: 6 days, CellTiter-Glo, read-out: NCI-H1373 GI50.
A further experiment has as its target His-GST-PARP7 (Homo sapiens (Human), UniProt Q7Z3E1). Kind of experiment: PARP7 biochemical assay. As to conditions: read-out: PARP7 IC50.
Another experiment has as its target PARP1 (Homo sapiens (Human), UniProt P09874). Nature of the experiment: PARP1 biochemical assay.
In experiment [3] the test system is HARA (human lung squamous cell carcinoma) cells. Nature of the experiment: Cell proliferation assay (CellTiter-Glo), HARA. In kind it is cell-based. As to conditions: 6 days, CellTiter-Glo, read-out: HARA GI50.

As a reminder, the IC50 is the concentration at which inhibition is half-maximal. In general, GI50 refers to the concentration at which growth is held to half of that of the control.

Read-outs that look alike come from different tables or passages of the source.

Chain of His-GST-PARP7 (Q7Z3E1 whole entry): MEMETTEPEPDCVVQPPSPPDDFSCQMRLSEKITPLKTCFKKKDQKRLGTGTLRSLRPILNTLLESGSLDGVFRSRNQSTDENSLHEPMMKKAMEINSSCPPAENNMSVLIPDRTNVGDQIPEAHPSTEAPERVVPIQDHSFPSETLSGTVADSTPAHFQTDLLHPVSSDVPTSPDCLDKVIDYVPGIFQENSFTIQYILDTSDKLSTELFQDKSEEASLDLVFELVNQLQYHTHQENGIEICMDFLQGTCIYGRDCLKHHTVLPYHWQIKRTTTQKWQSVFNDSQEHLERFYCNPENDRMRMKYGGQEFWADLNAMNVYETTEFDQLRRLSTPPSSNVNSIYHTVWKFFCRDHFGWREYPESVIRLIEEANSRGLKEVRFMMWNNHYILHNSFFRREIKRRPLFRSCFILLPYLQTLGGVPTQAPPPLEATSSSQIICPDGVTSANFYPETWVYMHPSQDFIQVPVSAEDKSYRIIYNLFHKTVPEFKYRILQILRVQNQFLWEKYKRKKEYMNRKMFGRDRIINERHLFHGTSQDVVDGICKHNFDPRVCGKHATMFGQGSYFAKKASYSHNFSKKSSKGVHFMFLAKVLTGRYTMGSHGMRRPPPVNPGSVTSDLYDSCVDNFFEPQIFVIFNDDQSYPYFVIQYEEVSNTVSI
Chain of PARP1 (P09874 whole entry, species assumed): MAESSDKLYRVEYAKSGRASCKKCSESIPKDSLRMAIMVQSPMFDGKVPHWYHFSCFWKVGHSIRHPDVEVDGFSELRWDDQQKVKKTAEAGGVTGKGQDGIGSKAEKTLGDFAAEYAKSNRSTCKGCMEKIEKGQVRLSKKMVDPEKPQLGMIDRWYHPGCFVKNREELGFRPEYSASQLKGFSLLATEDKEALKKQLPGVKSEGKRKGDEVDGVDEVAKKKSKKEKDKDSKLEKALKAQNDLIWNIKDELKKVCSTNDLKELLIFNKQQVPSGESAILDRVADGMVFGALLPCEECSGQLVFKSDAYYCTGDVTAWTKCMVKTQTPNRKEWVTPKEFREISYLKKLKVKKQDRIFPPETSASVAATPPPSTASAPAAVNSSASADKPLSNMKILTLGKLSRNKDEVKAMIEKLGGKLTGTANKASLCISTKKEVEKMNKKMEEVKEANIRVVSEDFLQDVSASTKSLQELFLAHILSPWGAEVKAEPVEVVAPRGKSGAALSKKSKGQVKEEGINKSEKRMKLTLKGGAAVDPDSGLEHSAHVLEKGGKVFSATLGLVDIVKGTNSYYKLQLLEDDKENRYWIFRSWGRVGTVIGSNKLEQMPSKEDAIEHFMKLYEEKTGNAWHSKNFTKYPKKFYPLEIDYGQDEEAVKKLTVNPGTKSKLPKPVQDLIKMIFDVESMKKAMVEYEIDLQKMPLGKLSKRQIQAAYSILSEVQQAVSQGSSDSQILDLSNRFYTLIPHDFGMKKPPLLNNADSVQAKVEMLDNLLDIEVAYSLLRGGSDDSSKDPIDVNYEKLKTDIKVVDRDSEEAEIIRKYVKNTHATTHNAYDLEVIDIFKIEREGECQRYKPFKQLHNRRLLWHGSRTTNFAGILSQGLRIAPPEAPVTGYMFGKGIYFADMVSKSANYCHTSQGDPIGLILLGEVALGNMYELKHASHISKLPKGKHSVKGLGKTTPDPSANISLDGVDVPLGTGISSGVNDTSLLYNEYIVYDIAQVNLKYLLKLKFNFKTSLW
Chain of PARP2 (Q9UGN5 whole entry): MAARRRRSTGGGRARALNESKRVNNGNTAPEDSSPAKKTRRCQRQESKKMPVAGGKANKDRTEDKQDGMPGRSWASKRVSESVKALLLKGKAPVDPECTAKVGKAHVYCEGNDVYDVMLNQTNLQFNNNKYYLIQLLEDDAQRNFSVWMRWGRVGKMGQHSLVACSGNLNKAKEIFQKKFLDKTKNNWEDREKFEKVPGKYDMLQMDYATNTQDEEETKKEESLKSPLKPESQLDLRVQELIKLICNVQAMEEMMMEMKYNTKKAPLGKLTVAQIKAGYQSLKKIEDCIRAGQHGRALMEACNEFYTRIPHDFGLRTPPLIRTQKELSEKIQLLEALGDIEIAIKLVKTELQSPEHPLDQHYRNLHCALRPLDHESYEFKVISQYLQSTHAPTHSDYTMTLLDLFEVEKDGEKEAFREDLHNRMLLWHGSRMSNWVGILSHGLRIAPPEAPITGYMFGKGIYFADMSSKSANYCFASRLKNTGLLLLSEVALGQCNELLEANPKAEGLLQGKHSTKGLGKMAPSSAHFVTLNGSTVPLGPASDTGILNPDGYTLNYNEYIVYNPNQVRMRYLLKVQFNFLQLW

Turning to `CC#Cc1cc(C(F)(F)F)c2c(=O)[nH]nc(Cc3ccc(F)c(C(=O)N4CCN(c5ccc(C#N)cn5)CC4)c3)c2c1` [Example 84, 6-(4-(2-Fluoro-5-((4-oxo-7-(prop-1-yn-1-yl)-5-(trifluoromethyl)-3,4-dihydrophthalazin-1-yl)methyl)benzoyl)piperazin-1-yl)nicotinonitrile], the results for the IC50 at PARP2, at His-GST-PARP7 and at PARP1 were 100 to 500 nM, less than 50 nM and 100 to 500 nM, respectively. Moreover, the GI50 in experiment [1] (Mus musculus, CT26, 144 h) is more than 5000 nM; in experiment [2] (Homo sapiens, NCI-H1373, 144 h) it was less than 100 nM; in experiment [3] (Homo sapiens, 144 h) it was 1000 to 5000 nM.
For “6-(4-(5-((7-cyclobutoxy-4-oxo-3,4-dihydrophthalazin-1-yl)methyl)-2-fluorobenzoyl)piperazin-1-yl)-4-methoxynicotinonitrile [Example 137]”, the IC50 at PARP2 was 100 to 500 nM; at His-GST-PARP7, less than 50 nM; on PARP1 it was more than 2000 nM. Moreover, the results for the GI50 in experiment [2] and in experiment [3] were less than 100 nM and 1000 to 5000 nM, respectively.
Regarding `C#CC(C)Oc1ccc2c(=O)[nH]nc(Cc3ccc(F)c(C(=O)N4CCN(c5ccc(C#N)cn5)CC4)c3)c2c1` (stereo not shown) [Example 8, 6-(4-(5-((7-(But-3-yn-2-yloxy)-4-oxo-3,4-dihydrophthalazin-1-yl)methyl)-2-fluorobenzoyl)piperazin-1-yl)nicotinonitrile], the concentration for half-maximal inhibition (IC50) was 100 to 500 nM at PARP2, less than 50 nM at His-GST-PARP7 and 100 to 500 nM at PARP1. Also, the GI50 in experiment [1] (Mus musculus, CT26, 144 h) was less than 100 nM; in experiment [2] (Homo sapiens, NCI-H1373, 144 h) it was less than 100 nM; in experiment [3] (Homo sapiens, 144 h) it was 1000 to 5000 nM.
With `COc1cc2c(Cc3cccc(C(=O)N4CCN(c5ccc(C#N)cn5)CC4)c3)n[nH]c(=O)c2cc1F` [Example 82, 6-(4-(3-((6-Fluoro-7-methoxy-4-oxo-3,4-dihydrophthalazin-1-yl)methyl)benzoyl)piperazin-1-yl)nicotinonitrile], the IC50 at PARP2, on His-GST-PARP7 and against PARP1 was less than 50 nM throughout. For the same compound, the GI50 was less than 100 nM in experiment [1] (Mus musculus, CT26, 144 h); less than 100 nM in experiment [2] (Homo sapiens, NCI-H1373, 144 h); 100 to 1000 nM in experiment [3] (Homo sapiens, 144 h).
Turning to `N#Cc1ccc(N2CCCC23CN(C(=O)c2cc(Cc4n[nH]c(=O)c5ccc(OC6CCC6)cc45)ccc2F)C3)nc1` [Example 149, 6-(2-(5-((7-cyclobutoxy-4-oxo-3,4-dihydrophthalazin-1-yl)methyl)-2-fluorobenzoyl)-2,5-diazaspiro[3.4]octan-5-yl)nicotinonitrile], the GI50 in experiment [1] (Mus musculus, CT26, 144 h) was more than 5000 nM; in experiment [2] (Homo sapiens, NCI-H1373, 144 h) it was more than 5000 nM; in experiment [3] (Homo sapiens, 144 h) it was more than 5000 nM. Also, the IC50 at His-GST-PARP7 fell in the range of 500 to 2000 nM.
For `CC#Cc1ccc2c(=O)[nH]nc(Cc3ccc(F)c(C(=O)N4CCN(c5ccc(C#N)cn5)CC4)c3)c2c1OC` [Example 81, 6-(4-(2-Fluoro-5-((8-methoxy-4-oxo-7-(prop-1-yn-1-yl)-3,4-dihydrophthalazin-1-yl)methyl)benzoyl)piperazin-1-yl)nicotinonitrile], the GI50 in experiment [1] (Mus musculus, CT26, 144 h) is less than 100 nM; in experiment [2] (Homo sapiens, NCI-H1373, 144 h) it was less than 100 nM; in experiment [3] (Homo sapiens, 144 h), 100 to 1000 nM. For the same compound, the half-inhibitory concentration (IC50) at His-GST-PARP7 was less than 50 nM.
On to `N#Cc1ccc(N2CCN(C(=O)c3cc(Cc4n[nH]c(=O)c5ccc(OC6CCC6)cc45)ccc3F)CC2)nc1C(F)(F)F` [Example 135, 6-(4-(5-((7-cyclobutoxy-4-oxo-3,4-dihydrophthalazin-1-yl)methyl)-2-fluorobenzoyl)piperazin-1-yl)-2-(trifluoromethyl)nicotinonitrile], for which the GI50 in experiment [1] (Mus musculus, CT26, 144 h) was more than 5000 nM; in experiment [2] (Homo sapiens, NCI-H1373, 144 h), 100 to 1000 nM; in experiment [3] (Homo sapiens, 144 h), more than 5000 nM. On His-GST-PARP7, the IC50 was 50 to 100 nM.
In the case of `N#Cc1cnc(N2CCN(C(=O)c3cc(Cc4n[nH]c(=O)c5ccc(OC6CCC6)cc45)ccc3F)CC2)nc1` [Example 154, 2-(4-(5-((7-cyclobutoxy-4-oxo-3,4-dihydrophthalazin-1-yl)methyl)-2-fluorobenzoyl)piperazin-1-yl)pyrimidine-5-carbonitrile], the GI50 is 1000 to 5000 nM in experiment [1] (Mus musculus, CT26, 144 h); less than 100 nM in experiment [2] (Homo sapiens, NCI-H1373, 144 h); 1000 to 5000 nM in experiment [3] (Homo sapiens, 144 h). For the same compound, the IC50 at His-GST-PARP7 was less than 50 nM.
In the case of `N#Cc1ccc(-c2nnc3n2CCN(C(=O)c2cc(Cc4n[nH]c(=O)c5ccc(OC6CCC6)cc45)ccc2F)C3)nc1` [Example 139, 6-(7-(5-((7-cyclobutoxy-4-oxo-3,4-dihydrophthalazin-1-yl)methyl)-2-fluorobenzoyl)-5,6,7,8-tetrahydro-[1,2,4]triazolo[4,3-a]pyrazin-3-yl)nicotinonitrile], the concentration for 50% growth inhibition (GI50) in experiment [1] (Mus musculus, CT26, 144 h) is more than 5000 nM; in experiment [2] (Homo sapiens, NCI-H1373, 144 h), 100 to 1000 nM; in experiment [3] (Homo sapiens, 144 h), 1000 to 5000 nM. For the same compound, the IC50 at His-GST-PARP7 was less than 50 nM.
Regarding `CC#Cc1ccc2c(=O)[nH]nc(Cc3ccc(F)c(C(=O)N4CCn5c(nnc5C(F)(F)F)C4)c3)c2c1` [Example 65, 4-(4-fluoro-3-(3-(trifluoromethyl)-5,6,7,8-tetrahydro-[1,2,4]triazolo[4,3-a]pyrazine-7-carbonyl)benzyl)-6-(prop-1-yn-1-yl)phthalazin-1(2H)-one], the IC50 is 50 to 100 nM on PARP2, less than 50 nM on His-GST-PARP7 and 50 to 100 nM at PARP1. Moreover, the GI50 in experiment [2] (Homo sapiens, NCI-H1373, 144 h) was in the range of 100 to 1000 nM.
For the compound `COc1ccc2c(=O)[nH]nc(Cc3cccc(C(=O)N4CCN(c5ccc(C#N)cn5)CC4)c3)c2c1` [Example 4, 6-(4-(3-((7-Methoxy-4-oxo-3,4-dihydrophthalazin-1-yl)methyl)benzoyl)piperazin-1-yl)nicotinonitrile], the GI50 in experiment [1] (Mus musculus, CT26, 144 h) is 100 to 1000 nM; in experiment [2] (Homo sapiens, NCI-H1373, 144 h), less than 100 nM; in experiment [3] (Homo sapiens, 144 h) it was 1000 to 5000 nM. Also, on His-GST-PARP7, the IC50 is less than 50 nM.
The corresponding values for `N#Cc1ccc(N2CCN(C(=O)c3cc(Cc4n[nH]c(=O)c5ccc(OC6CCC6)cc45)ccc3F)[C@@H]3C[C@@H]32)nc1` (stereo in doubt) [Example 150, 6-(5-(5-((7-cyclobutoxy-4-oxo-3,4-dihydrophthalazin-1-yl)methyl)-2-fluorobenzoyl)-2,5-diazabicyclo[4.1.0]heptan-2-yl)nicotinonitrile] are 1000 to 5000 nM, 100 to 1000 nM, 1000 to 5000 nM and less than 50 nM.
The corresponding values for `N#Cc1ccc(N2CC3(CN(C(=O)c4cc(Cc5n[nH]c(=O)c6ccc(OC7CCC7)cc56)ccc4F)C3)C2)nc1` [Example 148, 6-(6-(5-((7-cyclobutoxy-4-oxo-3,4-dihydrophthalazin-1-yl)methyl)-2-fluorobenzoyl)-2,6-diazaspiro[3.3]heptan-2-yl)nicotinonitrile] are more than 5000 nM, more than 5000 nM, more than 5000 nM and 500 to 2000 nM.
With “6-Cyclobutoxy-4-(4-fluoro-3-(2-(hydroxymethyl)-4,5,6,7-tetrahydropyrazolo[1,5-a]pyrazine-5-carbonyl)benzyl)phthalazin-1(2H)-one [Example 168]”, the 50% growth inhibitory concentration (GI50) in experiment [1], in experiment [2] and in experiment [3] was more than 5000 nM in each case. Also, the IC50 at His-GST-PARP7 is 100 to 500 nM.
Consider `O=C(c1cc(Cc2n[nH]c(=O)c3ccc(OC4CCC4)cc23)ccc1F)N1CCN(c2ccc(C(F)(F)F)nn2)CC1` [Example 158, 6-cyclobutoxy-4-(4-fluoro-3-(4-(6-(trifluoromethyl)pyridazin-3-yl)piperazine-1-carbonyl)benzyl)phthalazin-1(2H)-one], for which the GI50 in experiment [1] (Mus musculus, CT26, 144 h) is 1000 to 5000 nM; in experiment [2] (Homo sapiens, NCI-H1373, 144 h), 1000 to 5000 nM; in experiment [3] (Homo sapiens, 144 h), more than 5000 nM. Besides, on His-GST-PARP7, the IC50 was less than 50 nM.
